Laboratory results published in ChEMBL document CHEMBL1201862, “PubChem BioAssay data set” (2004).
Calls of active or inactive are those of the source. Cut-off read from the data, not from the text of the source, for most assays here: actives have a measured EC50 and inactives only a lower limit.

What was measured:
[1] = luciferase reporter signal suppression in cells – H4 neuroglioma cells, luminescence, dose response (AID 1990); assay type: functional, cell-based
[2] = luciferase reporter signal reduction – luminescence, H4-C neuroglioblastoma cells, dose response (AID 2458); assay type: functional, cell-based;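 note: H4 neuroglioblastoma cells stably carrying a luciferase reporter gene fusion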
BJ [3] = experiment: BJ-TERT fibroblast viability loss – cell-based, RAS-independent, luminescence, dose response (AID 1933); assay type: functional; details: Homo sapiens
cells = assay type: functional, cell-based
[4] = Luminescence Cell-Based Dose Response HTS to Identify Inhibitors of 5'UTR Stem-Loop Driven Prion Protein mRNA Translation in H4 Neuroglioblastoma Cells. [Related pubchem assays: 1827 (Project Summary), 1813 (Primary HTS)]; assay type: functional
[5] = alpha-synuclein stem-loop luciferase translation blockers – H4 neuroglioma cells, luminescence, confirmation (AID 1988); assay type: functional, cell-based
BJ [6] = experiment: cells; assay type: functional, cell-based; details: Homo sapiens
[7] = Luminescence-based dose response cell-based high throughput screening assay for cytotoxic compounds using the IEC-6 intestinal epithelial cell line. [Related pubchem assays: 1858 (Summary AID.), 1825 (Counterscreen.), 1907 (Confirmation screen.)]; assay type: functional
BJ [8] = experiment: BJ-TERT-LT-ST fibroblast viability loss – cell-based, RAS-independent, luminescence, dose response (AID 1935); assay type: functional; details: Homo sapiens;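 note: BJ fibroblasts immortalized with TERT plus LT and ST oncogenes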
[9] = DRD fibroblast viability loss – cell-based, non-viral oncogenic, luminescence, dose response (AID 1934); assay type: functional; details: Homo sapiens
[10] = alpha-synuclein stem-loop translation blockers – luminescence, H4 neuroglioblastoma cells, dose confirmation, confirmation (AID 2454); assay type: functional, cell-based;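 note: H4 neuroglioblastoma cells carrying an alpha-synuclein 5'UTR luciferase reporter; potency for inhibition of the luciferase signal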
[11] = biological target: Peroxisome proliferator-activated receptor gamma/Nuclear receptor coactivator 1 (Homo sapiens, UniProt P37231); experiment: (§1) TR-FRET dose response biochemical High Throughput Screening assay for agonists of the steroid receptor coactivator 1 (SRC-1) recruitment by the peroxisome proliferator-activated receptor gamma (PPAR gamma): non-selective agonists. [Related pubchem assays (depositor defined):AID1300, AID1808, AID504735, AID631]; assay type: protein assay
Bcl-2-like protein 10 = Bcl-2-like protein 10 (Homo sapiens, UniProt Q9HD36); experiment: Bcl-B/TR3 peptide binding disruption – biochemical, fluorescence polarization, FITC-TR3 peptide, selectivity assay for Bfl-1 inhibitor project, primary screen (AID 748);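 note: fluorescence polarization from a fluorescein-labelled TR3 peptide binding purified Bcl-B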
[12] = biological target: Peroxisome proliferator-activated receptor gamma/Nuclear receptor coactivator 3 (Homo sapiens, UniProt P37231); experiment: as §1, with “3 (SRC-3)” for “1 (SRC-1)”, “assays: 1301 (Confirmation screen.), 1048 (Primary screen.)]” for “assays (depositor defined):AID1300, AID1808, AID504735, AID631]”; assay type: functional
Estrogen receptor beta = Estrogen receptor beta (Homo sapiens, UniProt Q92731);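 note: recombinant ER-beta bound to coactivator SRC1 peptide in presence of estradiol agonist; inhibitors block coactivator peptide binding and lower the FRET signal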
[13] = biological target: Peroxisome proliferator-activated receptor gamma/Nuclear receptor coactivator 2 (Homo sapiens, UniProt P37231); experiment: TR-FRET dose response biochemical High Throughput Screening assay for agonists of the steroid receptor coactivator 2 (SRC-2) recruitment by the peroxisome proliferator-activated receptor gamma (PPAR gamma): non-selective agonists. [Related pubchem assays: 1297, 1032 ]; assay type: functional
[14] = biological target: Mitogen-activated protein kinase 10 (Homo sapiens, UniProt P53779); experiment: Dose response biochemical screening assay for inhibitors of c-Jun N-Terminal Kinase 3 (JNK3). [Related pubchem assays: 746 ]
[15] = NIH-3T3 fibroblast cytotoxicity, dose response, cytotoxicity control, cell-based, fluorescence, Alamar Blue, secondary assay (AID 2327); assay type: functional;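 note: NIH-3T3 mouse fibroblasts cultured with fluconazole at 8 µg/mL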
[16] = fluconazole-exposed Candida albicans growth modulators – fluorescence, retest, confirmation (AID 2467); assay type: functional, cell-based
[17] = biological target: NACHT, LRR and PYD domains-containing protein 3 (Homo sapiens, UniProt Q96P20); experiment: NALP3 inhibitors in yeast, dose response, luminescent (AID 488799); assay type: functional
[18] = biological target: Transitional endoplasmic reticulum ATPase (Homo sapiens, UniProt P55072, C522A); experiment: C522A mutant p97 ATPase inhibitors, dose response, counter-screen for p97 inhibitor project, biochemical, luminescence (AID 1544)
[19] = biological target: Transitional endoplasmic reticulum ATPase (Homo sapiens, UniProt P55072); experiment: p97 ATPase inhibitors, dose response, biochemical (AID 1534)
[20] = biological target: Induced myeloid leukemia cell differentiation protein Mcl-1 (Homo sapiens, UniProt Q07820); assay type: functional
Troponin, cardiac muscle = Troponin, cardiac muscle (Homo sapiens, UniProt P19429+P45379+P63316); experiment: compounds desensitizing RTF to calcium – biochemical, fluorescence, cardiac regulated thin filaments, triplicate IC50, dose response (AID 504742); assay type: protein-complex assay
[21] = system: Streptococcus sp. 'group A'; experiment: Streptococcus pyogenes SK(-)GAS viability under kanamycin – luminescence, BacTiterGlo, confirmation, counter-screen for streptokinase expression inhibitor project, dose response (AID 1900); assay type: functional, organism-based
Streptococcus [22] = experiment: Luminescence Microorganism-Based Dose Response Follow up to Identify Compounds Cytotoxic to Streptococcus. [Related pubchem assays: 1677 (Project Summary), 1915, 1914, 1902 (Retest at Dose), 1900 (Counter Screen), 1662 (Primary HTS)]; assay type: functional, organism-based
Streptokinase A [23] = biological target: T1, Streptokinase A (Streptococcus pyogenes serotype M1, UniProt P10520); experiment: viability-normalized secreted streptokinase activity reduction – plasminogen activation absorbance, OD405, dose response (AID 1914); assay type: functional, Streptococcus pyogenes M1 GAS;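 note: secreted streptokinase activity via plasminogen activation per viability signal from cell pellet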
T1 sequence (P10520 whole entry): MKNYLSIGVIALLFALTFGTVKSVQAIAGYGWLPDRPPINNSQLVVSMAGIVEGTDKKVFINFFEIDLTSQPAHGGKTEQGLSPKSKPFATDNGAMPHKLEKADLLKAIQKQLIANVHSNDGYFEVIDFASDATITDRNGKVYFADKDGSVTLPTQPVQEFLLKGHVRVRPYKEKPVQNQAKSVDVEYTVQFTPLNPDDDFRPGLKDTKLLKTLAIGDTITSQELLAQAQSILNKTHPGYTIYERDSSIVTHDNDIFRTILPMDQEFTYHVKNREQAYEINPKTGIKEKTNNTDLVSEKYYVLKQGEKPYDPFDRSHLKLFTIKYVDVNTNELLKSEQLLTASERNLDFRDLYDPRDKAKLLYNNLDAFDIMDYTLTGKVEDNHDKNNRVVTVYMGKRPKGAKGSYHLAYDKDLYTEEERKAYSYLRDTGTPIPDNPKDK

Streptokinase A [24] = biological target: T1, Streptokinase A; experiment: Absorbance Microorganism-Based Dose Response Follow up to Identify Inhibitors of Streptokinase Expression. [Related pubchem assays: 1677 (Project Summary), 1915, 1914, 1902 (Retest at Dose), 1900 (Counter Screen), 1662 (Primary HTS)]; assay type: functional, Streptococcus pyogenes M1 GAS
Streptococcus [25] = experiment: GAS bacterial viability reduction – luminescence, BacTiter-Glo, strain UMAA2166, counter-screen for streptokinase expression inhibitor project, dose response (AID 2477); assay type: functional, organism-based
Streptococcus [26] = experiment: GAS UMAA2166 growth inhibition – luminescence, BacTiterGlo, counter-screen for streptokinase expression inhibitor project, dose response (AID 1915); assay type: functional, organism-based;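 note: potency for reduction of bacterial viability or growth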
[27] = Absorbance Microorganism-Based Dose Response Follow up to Identify Inhibitors of Streptokinase Expression. [Related pubchem assays: 1677 (Project Summary), 1915, 1914, 1902 (Retest at Dose), 1900 (Counter Screen), 1662 (Primary HTS)]

NACHT, LRR and PYD domains-containing protein 3, sequence (Q96P20 whole entry, the tested form may be a part): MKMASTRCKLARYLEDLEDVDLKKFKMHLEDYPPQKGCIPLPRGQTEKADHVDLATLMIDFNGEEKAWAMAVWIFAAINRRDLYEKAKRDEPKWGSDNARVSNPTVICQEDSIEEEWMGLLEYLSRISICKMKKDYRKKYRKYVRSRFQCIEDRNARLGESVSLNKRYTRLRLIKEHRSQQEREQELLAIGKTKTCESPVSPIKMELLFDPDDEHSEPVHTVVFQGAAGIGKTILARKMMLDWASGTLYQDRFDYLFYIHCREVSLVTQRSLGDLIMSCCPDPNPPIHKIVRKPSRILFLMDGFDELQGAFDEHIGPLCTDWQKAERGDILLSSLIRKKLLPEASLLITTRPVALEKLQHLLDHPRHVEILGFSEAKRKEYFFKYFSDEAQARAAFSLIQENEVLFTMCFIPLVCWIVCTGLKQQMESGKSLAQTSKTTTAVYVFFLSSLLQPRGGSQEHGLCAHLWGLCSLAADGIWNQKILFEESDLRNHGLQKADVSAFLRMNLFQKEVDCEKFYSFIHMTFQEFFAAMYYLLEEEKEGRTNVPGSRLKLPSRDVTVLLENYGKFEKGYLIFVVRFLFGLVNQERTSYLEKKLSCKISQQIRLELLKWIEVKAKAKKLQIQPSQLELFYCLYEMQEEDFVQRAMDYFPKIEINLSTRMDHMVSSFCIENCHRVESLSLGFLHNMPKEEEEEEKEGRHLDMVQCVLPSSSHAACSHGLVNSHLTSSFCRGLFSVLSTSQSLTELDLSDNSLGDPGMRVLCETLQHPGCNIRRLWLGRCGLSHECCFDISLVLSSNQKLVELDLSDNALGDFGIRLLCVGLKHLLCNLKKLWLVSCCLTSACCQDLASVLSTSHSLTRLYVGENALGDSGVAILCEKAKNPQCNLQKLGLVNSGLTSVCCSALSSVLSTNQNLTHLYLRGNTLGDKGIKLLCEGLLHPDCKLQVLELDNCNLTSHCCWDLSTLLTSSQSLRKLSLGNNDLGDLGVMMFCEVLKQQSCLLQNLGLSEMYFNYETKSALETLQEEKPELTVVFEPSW
Transitional endoplasmic reticulum ATPase (Homo sapiens, UniProt P55072), sequence (P55072 whole entry): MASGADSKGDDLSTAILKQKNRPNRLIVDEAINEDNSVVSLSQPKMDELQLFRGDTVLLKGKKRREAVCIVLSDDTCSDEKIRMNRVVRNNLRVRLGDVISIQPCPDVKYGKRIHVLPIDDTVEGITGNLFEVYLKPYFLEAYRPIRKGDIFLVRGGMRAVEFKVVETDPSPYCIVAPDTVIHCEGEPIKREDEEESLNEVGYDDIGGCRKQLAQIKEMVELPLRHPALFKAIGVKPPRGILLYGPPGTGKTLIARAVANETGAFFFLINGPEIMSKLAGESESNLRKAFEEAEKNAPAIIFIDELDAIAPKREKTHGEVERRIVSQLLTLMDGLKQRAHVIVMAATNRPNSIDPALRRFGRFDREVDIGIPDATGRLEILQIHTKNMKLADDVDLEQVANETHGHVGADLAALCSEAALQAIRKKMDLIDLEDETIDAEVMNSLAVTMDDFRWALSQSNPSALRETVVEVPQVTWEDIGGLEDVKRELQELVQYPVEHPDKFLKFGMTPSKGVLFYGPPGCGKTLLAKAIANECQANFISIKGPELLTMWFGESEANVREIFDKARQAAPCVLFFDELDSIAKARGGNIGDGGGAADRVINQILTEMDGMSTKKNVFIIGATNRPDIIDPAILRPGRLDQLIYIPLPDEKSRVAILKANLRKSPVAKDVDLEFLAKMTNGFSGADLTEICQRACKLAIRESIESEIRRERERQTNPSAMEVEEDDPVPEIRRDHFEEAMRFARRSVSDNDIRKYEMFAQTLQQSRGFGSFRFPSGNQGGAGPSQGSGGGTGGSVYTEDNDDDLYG
Peroxisome proliferator-activated receptor gamma/Nuclear receptor coactivator 1, sequence (P37231 whole entry): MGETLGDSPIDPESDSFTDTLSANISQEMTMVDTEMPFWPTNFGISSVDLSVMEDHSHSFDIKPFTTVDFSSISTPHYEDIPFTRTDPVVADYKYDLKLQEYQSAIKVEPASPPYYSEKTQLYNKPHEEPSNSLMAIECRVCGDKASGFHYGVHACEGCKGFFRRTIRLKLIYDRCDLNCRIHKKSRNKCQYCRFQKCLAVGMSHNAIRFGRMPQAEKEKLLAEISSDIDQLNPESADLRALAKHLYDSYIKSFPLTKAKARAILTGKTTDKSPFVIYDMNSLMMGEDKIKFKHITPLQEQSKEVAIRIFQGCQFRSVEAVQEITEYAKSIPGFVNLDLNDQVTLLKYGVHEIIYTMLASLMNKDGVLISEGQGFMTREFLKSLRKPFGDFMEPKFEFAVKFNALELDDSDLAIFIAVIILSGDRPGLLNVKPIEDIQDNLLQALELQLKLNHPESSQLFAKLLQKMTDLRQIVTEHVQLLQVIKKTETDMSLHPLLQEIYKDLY
Peroxisome proliferator-activated receptor gamma/Nuclear receptor coactivator 1, sequence (Q15788 whole entry, further chain): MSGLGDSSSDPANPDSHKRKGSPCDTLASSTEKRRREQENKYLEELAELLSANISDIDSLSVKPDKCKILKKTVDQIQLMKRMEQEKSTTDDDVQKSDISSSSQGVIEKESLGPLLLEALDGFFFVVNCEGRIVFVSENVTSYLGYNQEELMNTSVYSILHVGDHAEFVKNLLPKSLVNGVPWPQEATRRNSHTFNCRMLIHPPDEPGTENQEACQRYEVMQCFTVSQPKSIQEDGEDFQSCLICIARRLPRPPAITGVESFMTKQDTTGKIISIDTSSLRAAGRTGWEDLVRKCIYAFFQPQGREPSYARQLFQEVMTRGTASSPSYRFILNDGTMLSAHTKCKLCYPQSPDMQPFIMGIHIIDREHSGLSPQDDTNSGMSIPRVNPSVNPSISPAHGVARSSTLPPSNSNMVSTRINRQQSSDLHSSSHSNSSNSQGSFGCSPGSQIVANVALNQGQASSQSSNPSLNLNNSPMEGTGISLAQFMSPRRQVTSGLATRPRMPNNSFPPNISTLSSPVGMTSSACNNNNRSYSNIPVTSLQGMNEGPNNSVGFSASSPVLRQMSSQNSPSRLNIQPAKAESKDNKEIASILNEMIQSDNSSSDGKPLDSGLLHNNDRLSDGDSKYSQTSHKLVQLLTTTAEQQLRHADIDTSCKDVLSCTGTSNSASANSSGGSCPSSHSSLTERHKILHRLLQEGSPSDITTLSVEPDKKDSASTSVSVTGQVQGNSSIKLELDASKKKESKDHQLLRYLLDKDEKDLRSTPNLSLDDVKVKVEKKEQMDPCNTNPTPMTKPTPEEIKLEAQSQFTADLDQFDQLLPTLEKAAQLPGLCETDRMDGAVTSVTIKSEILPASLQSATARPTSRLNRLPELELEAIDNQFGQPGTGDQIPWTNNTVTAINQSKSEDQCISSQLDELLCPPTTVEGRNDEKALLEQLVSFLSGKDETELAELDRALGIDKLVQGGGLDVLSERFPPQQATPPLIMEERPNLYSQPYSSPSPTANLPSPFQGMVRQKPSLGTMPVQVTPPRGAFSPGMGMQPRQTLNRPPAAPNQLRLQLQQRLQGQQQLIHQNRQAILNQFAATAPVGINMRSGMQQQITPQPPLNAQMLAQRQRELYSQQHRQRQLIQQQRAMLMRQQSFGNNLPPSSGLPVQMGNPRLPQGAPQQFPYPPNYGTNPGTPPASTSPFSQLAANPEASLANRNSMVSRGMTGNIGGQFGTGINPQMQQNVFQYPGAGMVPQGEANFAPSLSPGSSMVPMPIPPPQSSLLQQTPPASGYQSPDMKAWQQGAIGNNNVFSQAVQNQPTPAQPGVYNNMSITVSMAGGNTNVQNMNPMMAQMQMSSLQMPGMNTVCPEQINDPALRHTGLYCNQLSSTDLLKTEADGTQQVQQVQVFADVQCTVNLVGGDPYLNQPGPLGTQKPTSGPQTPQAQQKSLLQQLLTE
Estrogen receptor beta, sequence (Q92731 whole entry): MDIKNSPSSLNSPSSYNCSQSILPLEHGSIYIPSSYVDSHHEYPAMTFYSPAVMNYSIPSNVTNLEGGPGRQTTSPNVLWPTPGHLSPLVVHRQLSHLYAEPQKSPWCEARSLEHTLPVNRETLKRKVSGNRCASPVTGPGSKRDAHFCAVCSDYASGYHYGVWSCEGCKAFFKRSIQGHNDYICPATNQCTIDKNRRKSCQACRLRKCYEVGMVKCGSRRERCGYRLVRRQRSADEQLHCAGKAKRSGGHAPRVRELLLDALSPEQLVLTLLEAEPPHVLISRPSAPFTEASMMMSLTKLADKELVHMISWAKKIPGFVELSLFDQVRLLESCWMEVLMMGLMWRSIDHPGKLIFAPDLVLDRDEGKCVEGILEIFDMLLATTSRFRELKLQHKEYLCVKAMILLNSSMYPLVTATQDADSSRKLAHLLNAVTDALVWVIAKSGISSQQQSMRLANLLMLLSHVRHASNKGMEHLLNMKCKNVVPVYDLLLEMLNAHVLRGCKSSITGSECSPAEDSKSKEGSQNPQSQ
Mitogen-activated protein kinase 10, sequence (P53779 whole entry): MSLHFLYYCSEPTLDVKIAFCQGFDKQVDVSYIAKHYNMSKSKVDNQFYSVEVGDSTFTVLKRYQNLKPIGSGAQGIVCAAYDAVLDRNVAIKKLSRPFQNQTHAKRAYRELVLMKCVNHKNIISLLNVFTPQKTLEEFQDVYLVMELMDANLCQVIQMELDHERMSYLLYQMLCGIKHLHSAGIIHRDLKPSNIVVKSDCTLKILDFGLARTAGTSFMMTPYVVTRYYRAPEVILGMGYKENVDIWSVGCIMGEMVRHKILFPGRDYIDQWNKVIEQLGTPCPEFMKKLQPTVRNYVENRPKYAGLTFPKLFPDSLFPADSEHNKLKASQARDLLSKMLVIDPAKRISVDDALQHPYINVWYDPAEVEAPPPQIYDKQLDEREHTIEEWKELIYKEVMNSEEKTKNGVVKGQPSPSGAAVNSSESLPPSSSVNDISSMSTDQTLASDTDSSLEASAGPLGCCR
Bcl-2-like protein 10, sequence (Q9HD36 whole entry): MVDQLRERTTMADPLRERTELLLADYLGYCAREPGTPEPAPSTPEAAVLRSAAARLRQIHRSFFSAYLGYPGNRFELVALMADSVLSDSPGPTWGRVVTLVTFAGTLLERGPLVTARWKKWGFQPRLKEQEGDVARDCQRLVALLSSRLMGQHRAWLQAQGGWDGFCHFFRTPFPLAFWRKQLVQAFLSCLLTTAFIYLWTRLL

Compound: COc1cc(-c2noc(C)c2/C=C/c2ccc(N)cc2)cc(OC)c1OC
- EC50 [1]: < 0.1 µM (active)
- EC50 [2]: 0.509 µM (active)
- EC50 (BJ [3]): 0.344 µM (active)
- EC50 (cells): 0.277 µM (active)
- EC50 [4]: < 0.1 µM (active)
- EC50 [5]: < 0.1 µM (active)
- EC50 (BJ [6]): 0.469 µM (inconclusive)
- IC50 [7]: 0.964 µM (active)
- EC50 (BJ [8]): 0.38 µM (inconclusive)
- EC50 [9]: 0.362 µM (active)
- EC50 [10]: 0.335 µM (active)

Compound: CC(=O)c1sc2nc(SCC(=O)N3CCCCC3)[nH]c(=O)c2c1C
- EC50 [11]: > 79.4 µM (inactive)
- IC50 (Bcl-2-like protein 10): > 100 µM (inactive)
- EC50 [12]: > 79.4 µM (not active)
- IC50 (Estrogen receptor beta): 14.6 µM (active)
- EC50 [13]: > 79.4 µM (not active)
- IC50 [14]: > 93.1 µM (not active)

Compound: c1ccc(Sc2cccc3ccccc23)c(CNC2=NCCN2)c1
- EC50 [15]: > 150 µM (inactive)
- EC50 [16]: 3.8 µM (active)
- IC50 [17]: 11.7 µM (active)

Compound: O=C(O[C@@H]1OC2COC(=O)c3cc(O)c(O)c(O)c3-c3c(cc(O)c(O)c3O)C(=O)O[C@@H]([C@H]1O)[C@@H]2O)c1cc(O)c(O)c(O)c1
- IC50 [18]: > 50 µM (not active)
- IC50 [19]: 4.2 µM (active)
- IC50 [20]: 4.48 µM (active)
- IC50 (Troponin, cardiac muscle): 0.677 µM (active)

Compound: CCCOc1ccc(-c2nc(OC)c3ccccc3n2)cc1
- EC50 [21]: 17.9 µM (active)
- EC50 (Streptococcus [22]): > 500 µM (not active)
- EC50 (Streptokinase A [23]): 6.02 µM (active)
- EC50 (Streptokinase A [24]): 3.83 µM (active)
- EC50 (Streptococcus [25]): > 500 µM (not active)
- EC50 (Streptococcus [26]): > 150 µM (not active)
- EC50 [27]: 4.03 µM (active)
